From patent US20250161501A1, “Radiolabeled Compounds for Imaging of Fibroblast Activation Protein (FAP) and Treatment of FAP-Related Disorders” (Provincial Health Services Authority, priority 2022, published 2025)

Legend:
[1] = target: T1, FAP (Homo sapiens, UniProt Q12884); conditions: literature [25]; cited from earlier work
T1 sequence (Q12884 1-760): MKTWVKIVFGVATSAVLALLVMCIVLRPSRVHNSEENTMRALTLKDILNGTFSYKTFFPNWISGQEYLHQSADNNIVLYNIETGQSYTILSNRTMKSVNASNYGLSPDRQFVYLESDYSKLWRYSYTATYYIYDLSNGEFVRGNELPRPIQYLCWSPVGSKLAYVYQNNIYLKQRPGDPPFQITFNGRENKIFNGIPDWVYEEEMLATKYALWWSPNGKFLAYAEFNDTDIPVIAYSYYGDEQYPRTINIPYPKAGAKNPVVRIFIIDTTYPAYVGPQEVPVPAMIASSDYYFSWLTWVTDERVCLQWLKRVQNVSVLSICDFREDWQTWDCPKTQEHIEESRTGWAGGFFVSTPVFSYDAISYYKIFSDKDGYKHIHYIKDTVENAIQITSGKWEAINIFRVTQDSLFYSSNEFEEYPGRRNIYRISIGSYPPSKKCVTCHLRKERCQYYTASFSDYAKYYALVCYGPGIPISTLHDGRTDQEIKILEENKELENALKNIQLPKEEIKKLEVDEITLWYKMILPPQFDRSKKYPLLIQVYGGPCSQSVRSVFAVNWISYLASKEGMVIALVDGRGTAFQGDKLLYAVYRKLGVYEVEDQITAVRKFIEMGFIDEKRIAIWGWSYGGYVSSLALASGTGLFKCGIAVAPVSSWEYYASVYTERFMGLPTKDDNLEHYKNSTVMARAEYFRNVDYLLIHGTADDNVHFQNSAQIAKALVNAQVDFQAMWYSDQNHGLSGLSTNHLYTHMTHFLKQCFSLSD

[2] = tested on: HEK293T:hFAP tumor xenografts; experiment: Ex vivo biodistribution of 68Ga-labeled tracers in HEK293T:hFAP tumor-bearing mice; conditions: HEK293T:hFAP tumor xenograft mice, 1 h post-injection, Table 5, mean±SD
Experimental: All imaging and biodistribution studies were performed using male NOD-scidIL2Rg^null (NRG) mice and conducted according to the guidelines established by the Canadian Council on Animal Care and approved by Animal Ethics Committee of the University of British Columbia. For tumor inoculations, mice were anesthetized by inhalation with 2% isoflurane in oxygen and implanted subcutaneously with 7.5×10^6 HEK293T:hFAP or U87 cells below the left shoulder. Imaging and biodistribution studies were performed only after tumors grew to 5-8 mm in diameter.
For ex vivo biodistribution studies, mice were injected with -1-3 MBq of the ^68Ga-labeled tracer. Mice were allowed to recover and roam freely in the cages after injecting the tracer. […] The uptake in each organ/tissue was normalized to the injected dose and expressed as the percentage of the injected dose per gram of tissue (% ID/g).
Biodistribution data for ^68Ga-SB03178, ^68Ga-SB04033, and ^68Ga-FAPI-4 in mice bearing FAP tumor xenografts are presented in Tables 5-7. Data are presented as mean±SD % ID/g.

Row | SMILES | Tumor uptake over time [1] | Biodistribution: Adrenal Glands [2] | Biodistribution: Blood [2] | Biodistribution: Bone [2] | Biodistribution: Brain [2] | Biodistribution: Fat [2] | Biodistribution: Heart [2] | Biodistribution: Kidneys [2] | Biodistribution: Liver [2] | Biodistribution: Lungs [2] | Biodistribution: Muscle [2] | Biodistribution: Pancreas [2] | Biodistribution: Spleen [2] | Biodistribution: Stomach [2] | Biodistribution: Testes [2] | Biodistribution: Tumor [2]
1 | N#C[C@@H]1CCCN1C(=O)CNC(=O)c1ccnc2ccc(OCCCN3CCN(C(=O)CN4CCN(CC(=O)O)CCN(CC(=O)O)CCN(CC(=O)O)CC4)CC3)cc12 [^68Ga-FAPI-2, metal not drawn] | reduced quickly over time | – | – | – | – | – | – | – | – | – | – | – | – | – | – | –
2 | N#C[C@@H]1CC(F)(F)CN1C(=O)CNC(=O)c1ccnc2ccc(OCCCN3CCN(C(=O)CN4CCN(CC(=O)O)CCN(CC(=O)O)CCN(CC(=O)O)CC4)CC3)cc12 [^68Ga-FAPI-4, metal not drawn, reference compound] | reduced quickly over time | 1.09 ± 0.31 % ID/g | 1.09 ± 0.08 % ID/g | 3.39 ± 1.03 % ID/g | 0.05 ± 0.01 % ID/g | 0.11 ± 0.02 % ID/g | 0.35 ± 0.03 % ID/g | 1.86 ± 0.10 % ID/g | 0.37 ± 0.02 % ID/g | 0.75 ± 0.09 % ID/g | 0.68 ± 0.04 % ID/g | 0.38 ± 0.04 % ID/g | 0.57 ± 0.13 % ID/g | 0.07 ± 0.02 % ID/g | 0.29 ± 0.04 % ID/g | 12.7±2.19 % ID/g
